We go through ten compounds from ChEMBL document CHEMBL1201862, “PubChem BioAssay data set” (2004).

Among the test systems are OVCAR-4; MDA-MB-435; COLO 205; HCT-15; SNB-19; BT-549; MOLT-4; SK-MEL-28; HCT-116; NCI-H460; NCI/ADR-RES; SF-268; SNB-75; PC-3; LOX IMVI; HCC 2998; K562; M14; NCI-H226; RXF 393.
What all share (assay): NCI tumour cell line growth inhibition, 48 h

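All cell lines were grown in 96-well plates and treated with compound for 48 hours. GI50 marks 50% less growth.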 Calls of active or inactive are those of the source. Rule as the data show it: active = GI50 up to about 1.1 µM and inactive = higher. Where only a bound is given, the exact number is not on record here.

As for `CC(=O)O[C@H]1CC[C@@]2(C)C(=CC[C@@H]3[C@@H]2CC[C@]2(C)c4nc(Cl)ccc4C[C@@H]32)C1`, the GI50 is 38.8 µM (inactive) in the experiment on OVCAR-4; 41.4 µM (inactive) in the experiment on MDA-MB-435; 39.1 µM (inactive) with COLO 205; 40 µM in the experiment with HCT-15; 93.8 µM (inactive) in the experiment on SNB-19; 15.2 µM (inactive) in the experiment with BT-549. The GI50 with MOLT-4 is 30.8 µM (inactive); with SK-MEL-28, 45.6 µM (inactive); in the experiment on HCT-116 it was 32.6 µM (inactive); in the experiment on NCI-H460 it was 33.4 µM (inactive); with NCI/ADR-RES, 47.4 µM (inactive); with SF-268, 49.8 µM (inactive). Moreover, the GI50 is 33.9 µM (inactive) in the experiment with SNB-75; 50 µM (inactive) in the experiment on PC-3; 40.9 µM (inactive) in the experiment with LOX IMVI; 45 µM (inactive) in the experiment with HCC 2998; 31.1 µM (inactive) in the experiment on K562; 60 µM (inactive) with M14. Further, the GI50 was > 100 µM (inactive) in the experiment on NCI-H226 and 33.3 µM (inactive) in the experiment on RXF 393.
For `NN=C(CC(O)(C(F)(F)Cl)C(F)(F)Cl)CC(O)(C(F)(F)Cl)C(F)(F)Cl`, the GI50 is > 10 µM (inactive) with OVCAR-4; > 10 µM (inactive) in the experiment with MDA-MB-435; > 10 µM (inactive) with COLO 205; more than 10 µM in the experiment with HCT-15; > 10 µM (inactive) with SNB-19; > 10 µM (inactive) with BT-549. Also, the GI50 in the experiment on MOLT-4, with SK-MEL-28, with HCT-116, in the experiment with NCI-H460, with NCI/ADR-RES and with SF-268 was > 10 µM (inactive) in each case. For the same compound, the GI50 with SNB-75, in the experiment with PC-3, in the experiment with LOX IMVI, in the experiment with HCC 2998, in the experiment with K562 and with M14 was > 10 µM (inactive) in each case. In addition, the GI50 in the experiment on NCI-H226 and in the experiment on RXF 393 was > 10 µM (inactive) each time.
As for `O=S(=O)(O)c1cc(/N=N/c2cc(S(=O)(=O)O)c3cccnc3c2O)ccc1/C=C/c1ccc(/N=N/c2cc(S(=O)(=O)O)c3cccnc3c2O)cc1S(=O)(=O)O`, the GI50 in the experiment on OVCAR-4 is > 100 µM (inactive); with MDA-MB-435 it was > 100 µM (inactive); in the experiment with COLO 205, > 100 µM (inactive); in the experiment with HCT-15, more than 100 µM; with SNB-19, > 100 µM (inactive); with BT-549, > 100 µM (inactive). Further, the GI50 is 20.4 µM (inactive) in the experiment on MOLT-4; > 100 µM (inactive) with SK-MEL-28; > 89.1 µM (inactive) in the experiment with HCT-116; > 100 µM (inactive) in the experiment on NCI-H460; > 100 µM (inactive) in the experiment on NCI/ADR-RES; > 100 µM (inactive) with SF-268. The GI50 with SNB-75 was > 100 µM (inactive); in the experiment with PC-3, > 100 µM (inactive); in the experiment with LOX IMVI, > 94.8 µM (inactive); in the experiment on HCC 2998 it was > 100 µM (inactive); in the experiment on K562 it was 34 µM (inactive); with M14 it was 63.2 µM (inactive). Moreover, the GI50 was > 100 µM (inactive) in the experiment on NCI-H226 and > 31.6 µM (inactive) in the experiment with RXF 393.
For the compound `Cc1cccc2c1c(=O)c1c(O)cc(O)cc1n2C`, the GI50 was > 100 µM (inactive) in the experiment on OVCAR-4; > 100 µM (inactive) in the experiment on MDA-MB-435; 30 µM (inactive) in the experiment with COLO 205; more than 100 µM with HCT-15; > 100 µM (inactive) in the experiment on SNB-19; > 100 µM (inactive) with BT-549. Further, the GI50 with MOLT-4 was 70.5 µM (inactive); with SK-MEL-28, > 100 µM (inactive); in the experiment on HCT-116, 78.3 µM (inactive); in the experiment with NCI-H460 it was > 100 µM (inactive); with NCI/ADR-RES it was > 100 µM (inactive); in the experiment on SF-268, > 100 µM (inactive). In addition, the GI50 with SNB-75 was 39.4 µM (inactive); in the experiment with PC-3 it was > 100 µM (inactive); with LOX IMVI it was 82 µM (inactive); in the experiment with HCC 2998, > 100 µM (inactive); in the experiment with K562, 80.5 µM (inactive); with M14 it was 55 µM (inactive). The GI50 with NCI-H226 was > 100 µM (inactive); with RXF 393 it was 59.8 µM (inactive).
For the compound `CC1(C)CC2=C(Sc3ccccc3N2)C(=O)C1C(=O)C(=O)Nc1cc(Cl)ccc1Cl` (centres undefined), the GI50 in the experiment on OVCAR-4 was 30.1 µM (inactive); with MDA-MB-435, > 100 µM (inactive); in the experiment with COLO 205, > 100 µM (inactive); in the experiment on HCT-15, more than 100 µM; with SNB-19, > 100 µM (inactive); in the experiment on BT-549, > 100 µM (inactive). Moreover, the GI50 in the experiment with MOLT-4 was 60 µM (inactive); with SK-MEL-28 it was > 100 µM (inactive); in the experiment with HCT-116 it was > 100 µM (inactive); in the experiment on NCI-H460, 14.9 µM (inactive); with NCI/ADR-RES, 63.2 µM (inactive); with SF-268, > 100 µM (inactive). Also, the GI50 was 38.2 µM (inactive) with SNB-75; 84.5 µM (inactive) in the experiment with PC-3; > 100 µM (inactive) in the experiment on LOX IMVI; > 100 µM (inactive) in the experiment on HCC 2998; > 100 µM (inactive) with K562; > 100 µM (inactive) in the experiment on M14. Further, the GI50 with NCI-H226 and in the experiment with RXF 393 was > 100 µM (inactive) in each case.
As to `Cc1cc(C(=O)CBr)c(CN2C(=O)c3ccccc3C2=O)c(=O)n1C`, the GI50 in the experiment with OVCAR-4 is 14.7 µM (inactive); with MDA-MB-435 it was 20.3 µM (inactive); in the experiment on COLO 205, 8.43 µM (inactive); with HCT-15 it was 12.6 µM; with SNB-19, 33.3 µM (inactive); in the experiment on BT-549, 18.1 µM (inactive). Also, the GI50 in the experiment on MOLT-4 was 1.93 µM (inactive); with SK-MEL-28, 20.4 µM (inactive); in the experiment with HCT-116 it was 66.1 µM (inactive); in the experiment on NCI-H460, 26.3 µM (inactive); with NCI/ADR-RES, 47.8 µM (inactive); in the experiment on SF-268, 24.4 µM (inactive). In addition, the GI50 was 22.8 µM (inactive) in the experiment on SNB-75; 17.2 µM (inactive) with PC-3; 12.9 µM (inactive) in the experiment on LOX IMVI; 38.1 µM (inactive) in the experiment on HCC 2998; 3.19 µM (inactive) in the experiment on K562; 43.1 µM (inactive) with M14. In addition, the GI50 in the experiment with NCI-H226 was 49.5 µM (inactive); with RXF 393 it was 11 µM (inactive).
As for `Cn1c2c(c3ccccc31)CC1c3c(c4ccccc4n3C)CC21` (centres undefined), the GI50 in the experiment with OVCAR-4 was > 100 µM (inactive); in the experiment with MDA-MB-435 it was > 100 µM (inactive); with COLO 205, > 100 µM (inactive); in the experiment on HCT-15, more than 100 µM; in the experiment on SNB-19 it was > 100 µM (inactive); with BT-549, > 100 µM (inactive). Moreover, the GI50 in the experiment with MOLT-4, in the experiment on SK-MEL-28, in the experiment with NCI-H460, in the experiment on NCI/ADR-RES, in the experiment with SF-268 and in the experiment on SNB-75 was > 100 µM (inactive) each time. For the same compound, the GI50 in the experiment on PC-3, with LOX IMVI, with HCC 2998, in the experiment on K562, in the experiment on M14 and with NCI-H226 was > 100 µM (inactive) in each case. For the same compound, the GI50 with RXF 393 is > 100 µM (inactive).
On to `CN1CCN(C)C12C=c1ccccc1=CC21CC1`, for which the GI50 was 71.3 µM (inactive) in the experiment on OVCAR-4; 22.1 µM (inactive) in the experiment with MDA-MB-435; 15.7 µM (inactive) in the experiment with COLO 205; 32.8 µM in the experiment on HCT-15; > 83.8 µM (inactive) in the experiment on SNB-19; 41 µM (inactive) with BT-549. In addition, the GI50 with MOLT-4 was 21.6 µM (inactive); with SK-MEL-28, 20.7 µM (inactive); in the experiment on HCT-116, 25.1 µM (inactive); with NCI-H460, 30.8 µM (inactive); in the experiment on NCI/ADR-RES it was > 68.2 µM (inactive); with SF-268, 29.7 µM (inactive). For the same compound, the GI50 was 45.6 µM (inactive) with SNB-75; 32.3 µM (inactive) in the experiment with PC-3; 34.6 µM (inactive) in the experiment on LOX IMVI; 16.3 µM (inactive) with HCC 2998; 22.8 µM (inactive) in the experiment on K562; 18.6 µM (inactive) in the experiment on M14. Besides, the GI50 in the experiment on NCI-H226 is > 100 µM (inactive); in the experiment with RXF 393, 55.5 µM (inactive).
For `CCOC(=O)c1cc(Br)c(-c2onc(C)c2Br)[nH]1`, the GI50 in the experiment on OVCAR-4 is 88.1 µM (inactive); with MDA-MB-435, > 100 µM (inactive); with COLO 205, > 100 µM (inactive); with HCT-15 it was more than 100 µM; in the experiment on SNB-19, 24.9 µM (inactive); with BT-549, 43 µM (inactive). Moreover, the GI50 was > 100 µM (inactive) in the experiment on MOLT-4; > 100 µM (inactive) in the experiment with SK-MEL-28; 28.8 µM (inactive) in the experiment on HCT-116; 65.6 µM (inactive) in the experiment with NCI-H460; 40.6 µM (inactive) with NCI/ADR-RES; 41.4 µM (inactive) in the experiment with SF-268. For the same compound, the GI50 is > 100 µM (inactive) with SNB-75; > 100 µM (inactive) in the experiment with PC-3; 98.6 µM (inactive) with LOX IMVI; 53.7 µM (inactive) in the experiment on HCC 2998; > 100 µM (inactive) in the experiment on K562; 66.2 µM (inactive) with M14. In addition, the results for the GI50 in the experiment with NCI-H226 and with RXF 393 were 30.1 µM (inactive) and 16.7 µM (inactive), respectively.
On to `COn1cc(C=O)c2ccccc21`, for which the GI50 was > 50.5 µM (inactive) in the experiment with OVCAR-4; 10.8 µM (inactive) in the experiment with MDA-MB-435; > 100 µM (inactive) with COLO 205; more than 70.5 µM with HCT-15; 69.7 µM (inactive) in the experiment on SNB-19; > 100 µM (inactive) with BT-549. Moreover, the GI50 is 33.2 µM (inactive) in the experiment on MOLT-4; 33.6 µM (inactive) with SK-MEL-28; > 59 µM (inactive) in the experiment on HCT-116; 35.1 µM (inactive) in the experiment on NCI-H460; > 70.8 µM (inactive) with NCI/ADR-RES; 68.4 µM (inactive) in the experiment with SF-268. Besides, the GI50 is 33.7 µM (inactive) with SNB-75; > 74.1 µM (inactive) in the experiment on PC-3; > 65.2 µM (inactive) in the experiment with LOX IMVI; 21.8 µM (inactive) in the experiment on HCC 2998; 53.5 µM (inactive) in the experiment on K562; > 61.8 µM (inactive) with M14. The GI50 in the experiment on NCI-H226 is > 20.2 µM (inactive); with RXF 393, 45.9 µM (inactive).
